Measured values: the kinase profiling compilation of Christmann-Franck et al. (2016)

Key:
Assay in all cases: radiometric filter-binding kinase assay
MKNK2 (human) = MKNK2 (human) (UniProt Q9HBH9)
MAPKAPK2 (human) = MAPKAPK2 (human) (UniProt P49137)
EPHB2 (human) = EPHB2 (human) (UniProt P29323)
MAPK8 (human) = MAPK8 (human) (UniProt P45983)
PAK4 (human) = PAK4 (human) (UniProt O96013)
RPS6KA1 KD1 KD2 (human) = RPS6KA1 KD1 KD2 (human) (UniProt Q15418)
PIM1 (human) = PIM1 (human) (UniProt P11309)
Sequence of PIM1 (human) (P11309 whole entry, looked up): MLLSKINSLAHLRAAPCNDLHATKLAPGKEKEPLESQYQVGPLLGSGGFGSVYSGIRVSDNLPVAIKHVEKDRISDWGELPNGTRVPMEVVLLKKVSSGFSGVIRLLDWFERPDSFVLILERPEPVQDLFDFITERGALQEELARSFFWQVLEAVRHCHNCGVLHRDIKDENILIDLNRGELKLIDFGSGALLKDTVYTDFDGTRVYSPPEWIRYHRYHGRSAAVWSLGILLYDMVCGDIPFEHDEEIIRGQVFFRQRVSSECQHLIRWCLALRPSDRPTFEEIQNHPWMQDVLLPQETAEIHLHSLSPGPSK

NEK2 (human) = NEK2 (human) (UniProt P51955)
MAPK14 (human) = MAPK14 (human) (UniProt Q16539)
Sequence of MAPK14 (human) (Q16539 whole entry, looked up): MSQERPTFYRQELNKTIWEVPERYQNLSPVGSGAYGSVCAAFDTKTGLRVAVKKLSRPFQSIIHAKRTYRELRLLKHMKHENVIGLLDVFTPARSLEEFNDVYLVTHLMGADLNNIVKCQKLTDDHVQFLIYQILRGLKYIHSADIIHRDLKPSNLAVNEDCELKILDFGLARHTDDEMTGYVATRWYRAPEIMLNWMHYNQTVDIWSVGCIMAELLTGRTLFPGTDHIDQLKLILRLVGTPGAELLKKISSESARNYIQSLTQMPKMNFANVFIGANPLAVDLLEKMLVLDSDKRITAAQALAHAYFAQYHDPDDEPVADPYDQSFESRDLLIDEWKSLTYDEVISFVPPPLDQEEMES

DYRK1A (human) = DYRK1A (human) (UniProt Q13627)
[1] = tested on: RPS6KB1 (human), P23443 [T412E]
MARK3 (human) = MARK3 (human) (UniProt P27448)
JAK2 JH1 JH2 (human) = JAK2 JH1 JH2 (human) (UniProt O60674)
MAPK3 (human) = MAPK3 (human) (UniProt P27361)
Sequence of MAPK3 (human) (P27361 whole entry, looked up): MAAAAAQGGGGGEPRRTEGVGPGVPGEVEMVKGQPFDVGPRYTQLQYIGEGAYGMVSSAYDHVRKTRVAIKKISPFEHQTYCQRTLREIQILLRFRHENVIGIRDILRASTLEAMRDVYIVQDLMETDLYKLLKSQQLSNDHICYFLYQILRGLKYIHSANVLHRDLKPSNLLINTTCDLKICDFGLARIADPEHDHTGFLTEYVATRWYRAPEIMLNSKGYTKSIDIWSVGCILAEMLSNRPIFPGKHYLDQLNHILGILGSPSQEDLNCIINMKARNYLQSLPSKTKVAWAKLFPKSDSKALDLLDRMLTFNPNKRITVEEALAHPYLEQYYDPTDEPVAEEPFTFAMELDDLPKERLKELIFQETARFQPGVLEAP

IRAK4 (human) = IRAK4 (human) (UniProt Q9NWZ3)
IKBKB (human) = IKBKB (human) (UniProt O14920)
MKNK1 (human) = MKNK1 (human) (UniProt Q9BUB5)
NTRK1 (human) = NTRK1 (human) (UniProt P04629); details: compound 10.0 µM
IKBKE (human) = IKBKE (human) (UniProt Q14164)
STK3 (human) = STK3 (human) (UniProt Q13188)
Sequence of STK3 (human) (Q13188 whole entry, looked up): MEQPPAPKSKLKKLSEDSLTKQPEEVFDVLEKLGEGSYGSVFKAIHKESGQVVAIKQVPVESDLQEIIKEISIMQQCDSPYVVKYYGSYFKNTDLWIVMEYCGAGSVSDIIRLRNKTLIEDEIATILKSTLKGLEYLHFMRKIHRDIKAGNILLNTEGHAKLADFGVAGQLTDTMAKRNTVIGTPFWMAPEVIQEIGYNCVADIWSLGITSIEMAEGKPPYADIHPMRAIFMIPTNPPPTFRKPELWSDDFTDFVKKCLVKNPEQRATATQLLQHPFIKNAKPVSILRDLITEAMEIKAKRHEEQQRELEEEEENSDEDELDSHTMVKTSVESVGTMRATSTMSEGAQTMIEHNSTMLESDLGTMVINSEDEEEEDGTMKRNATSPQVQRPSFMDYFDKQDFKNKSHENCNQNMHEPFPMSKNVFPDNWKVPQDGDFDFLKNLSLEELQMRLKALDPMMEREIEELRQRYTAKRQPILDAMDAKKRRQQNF

MAP3K11 (human) = MAP3K11 (human) (UniProt Q16584)
NUAK1 (human) = NUAK1 (human) (UniProt O60285); details: compound 1.0 µM
[2] = biological target: STK11 CAB39 STRADA (human) (UniProt Q9Y376+Q7RTN6+Q15831)
MARK1 (human) = MARK1 (human) (UniProt Q9P0L2)
MARK2 (human) = MARK2 (human) (UniProt Q7KZI7)
Sequence of MARK2 (human) (Q7KZI7 whole entry, looked up): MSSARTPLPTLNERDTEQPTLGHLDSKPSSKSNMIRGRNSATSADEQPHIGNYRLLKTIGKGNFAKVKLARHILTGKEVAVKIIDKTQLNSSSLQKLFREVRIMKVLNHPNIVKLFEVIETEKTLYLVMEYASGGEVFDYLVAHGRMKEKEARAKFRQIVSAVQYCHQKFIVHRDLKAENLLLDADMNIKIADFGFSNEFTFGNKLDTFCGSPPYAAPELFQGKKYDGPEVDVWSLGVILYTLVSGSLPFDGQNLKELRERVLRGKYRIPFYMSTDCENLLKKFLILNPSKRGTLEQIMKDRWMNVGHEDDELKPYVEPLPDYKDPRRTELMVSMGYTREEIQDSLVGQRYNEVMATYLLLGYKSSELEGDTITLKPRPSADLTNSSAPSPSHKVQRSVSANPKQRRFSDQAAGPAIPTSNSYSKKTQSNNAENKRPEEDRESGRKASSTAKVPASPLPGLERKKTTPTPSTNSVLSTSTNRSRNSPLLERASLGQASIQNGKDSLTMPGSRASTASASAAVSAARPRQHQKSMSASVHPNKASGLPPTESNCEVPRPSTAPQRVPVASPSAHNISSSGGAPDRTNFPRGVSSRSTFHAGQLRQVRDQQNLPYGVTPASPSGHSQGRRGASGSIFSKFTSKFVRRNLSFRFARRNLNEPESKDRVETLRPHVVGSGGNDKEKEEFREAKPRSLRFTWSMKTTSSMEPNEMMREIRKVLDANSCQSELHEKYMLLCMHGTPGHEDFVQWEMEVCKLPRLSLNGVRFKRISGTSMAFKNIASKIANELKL

DYRK3 (human) = DYRK3 (human) (UniProt O43781)
NEK6 (human) = NEK6 (human) (UniProt Q9HC98)
Sequence of NEK6 (human) (Q9HC98 whole entry, looked up): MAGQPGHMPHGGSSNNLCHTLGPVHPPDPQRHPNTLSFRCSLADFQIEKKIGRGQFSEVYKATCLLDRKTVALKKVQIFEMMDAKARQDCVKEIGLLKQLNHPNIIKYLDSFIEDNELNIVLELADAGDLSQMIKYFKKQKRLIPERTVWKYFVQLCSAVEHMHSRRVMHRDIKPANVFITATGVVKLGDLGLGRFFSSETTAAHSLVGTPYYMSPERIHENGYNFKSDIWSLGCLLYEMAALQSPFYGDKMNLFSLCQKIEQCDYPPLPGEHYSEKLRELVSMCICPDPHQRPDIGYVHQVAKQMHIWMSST

CHEK2 (human) = CHEK2 (human) (UniProt O96017)
TTK (human) = TTK (human) (UniProt P33981)
[3] = tested on: AKT1 (human), P31749 [S473D]
MAPK9 (human) = MAPK9 (human) (UniProt P45984)
CSNK1D (human) = CSNK1D (human) (UniProt P48730)
MAP2K1 (human) = MAP2K1 (human) (UniProt Q02750)
Sequence of MAP2K1 (human) (Q02750 whole entry, looked up): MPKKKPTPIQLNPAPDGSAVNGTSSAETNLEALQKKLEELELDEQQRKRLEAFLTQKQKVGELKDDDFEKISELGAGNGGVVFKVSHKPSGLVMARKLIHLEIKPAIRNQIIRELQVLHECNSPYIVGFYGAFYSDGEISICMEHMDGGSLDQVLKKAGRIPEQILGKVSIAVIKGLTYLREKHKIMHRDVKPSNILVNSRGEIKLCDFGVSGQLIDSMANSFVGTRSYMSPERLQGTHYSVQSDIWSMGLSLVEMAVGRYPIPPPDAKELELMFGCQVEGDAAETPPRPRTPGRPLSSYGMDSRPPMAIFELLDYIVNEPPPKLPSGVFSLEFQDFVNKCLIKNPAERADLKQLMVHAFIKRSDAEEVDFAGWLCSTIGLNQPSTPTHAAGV

CaMK1 (human) = CaMK1 (human) (UniProt Q14012)
Sequence of CaMK1 (human) (Q14012 whole entry, looked up): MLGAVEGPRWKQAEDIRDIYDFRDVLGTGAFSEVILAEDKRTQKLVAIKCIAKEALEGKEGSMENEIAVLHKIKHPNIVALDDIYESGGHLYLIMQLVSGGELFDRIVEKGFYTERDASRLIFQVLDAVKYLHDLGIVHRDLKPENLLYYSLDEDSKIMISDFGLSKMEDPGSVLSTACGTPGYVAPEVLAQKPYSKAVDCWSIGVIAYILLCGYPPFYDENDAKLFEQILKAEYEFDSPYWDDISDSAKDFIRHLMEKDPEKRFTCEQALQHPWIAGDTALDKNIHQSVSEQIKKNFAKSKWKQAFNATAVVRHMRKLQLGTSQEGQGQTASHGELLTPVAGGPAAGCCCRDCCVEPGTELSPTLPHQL

TBK1 (human) = TBK1 (human) (UniProt Q9UHD2)

Sequence of RPS6KA1 KD1 KD2 (human) (Q15418 whole entry, looked up): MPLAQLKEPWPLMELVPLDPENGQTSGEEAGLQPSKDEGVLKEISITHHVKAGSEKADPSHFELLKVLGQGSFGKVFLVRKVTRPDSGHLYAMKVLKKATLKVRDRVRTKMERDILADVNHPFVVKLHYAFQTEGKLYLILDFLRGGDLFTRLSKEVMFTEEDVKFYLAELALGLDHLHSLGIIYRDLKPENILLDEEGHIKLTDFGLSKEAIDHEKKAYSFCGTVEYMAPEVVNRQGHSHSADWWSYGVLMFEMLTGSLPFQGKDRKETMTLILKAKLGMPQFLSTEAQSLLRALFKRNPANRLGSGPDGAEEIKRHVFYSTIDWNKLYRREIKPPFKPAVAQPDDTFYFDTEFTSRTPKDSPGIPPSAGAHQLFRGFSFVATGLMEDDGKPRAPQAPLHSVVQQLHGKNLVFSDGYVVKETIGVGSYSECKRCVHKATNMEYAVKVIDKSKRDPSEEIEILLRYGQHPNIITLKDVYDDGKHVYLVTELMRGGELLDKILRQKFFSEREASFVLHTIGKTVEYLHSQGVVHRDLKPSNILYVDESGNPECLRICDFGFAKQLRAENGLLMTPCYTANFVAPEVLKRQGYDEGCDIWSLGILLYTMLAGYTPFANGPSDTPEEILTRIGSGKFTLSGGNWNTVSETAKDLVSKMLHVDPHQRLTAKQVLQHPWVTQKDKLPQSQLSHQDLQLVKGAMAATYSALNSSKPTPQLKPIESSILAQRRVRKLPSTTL
Sequence of PAK4 (human) (O96013 whole entry, looked up): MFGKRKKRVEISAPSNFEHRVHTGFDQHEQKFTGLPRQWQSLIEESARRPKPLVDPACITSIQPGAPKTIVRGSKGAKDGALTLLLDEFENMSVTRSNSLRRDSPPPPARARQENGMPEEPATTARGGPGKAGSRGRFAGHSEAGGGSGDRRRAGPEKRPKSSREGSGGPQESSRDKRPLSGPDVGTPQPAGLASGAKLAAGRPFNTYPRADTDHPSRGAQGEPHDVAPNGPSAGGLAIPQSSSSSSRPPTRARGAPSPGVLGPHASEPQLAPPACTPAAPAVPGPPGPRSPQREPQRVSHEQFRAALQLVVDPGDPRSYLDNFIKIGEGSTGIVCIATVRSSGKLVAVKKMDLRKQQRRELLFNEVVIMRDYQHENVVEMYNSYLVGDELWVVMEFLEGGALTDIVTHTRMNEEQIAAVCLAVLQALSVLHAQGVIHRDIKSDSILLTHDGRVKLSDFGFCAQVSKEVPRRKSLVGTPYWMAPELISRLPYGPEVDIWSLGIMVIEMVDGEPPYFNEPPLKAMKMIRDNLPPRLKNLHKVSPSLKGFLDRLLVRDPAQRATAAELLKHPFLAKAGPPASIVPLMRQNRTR

residual activity (MKNK2 (human); compound 1.0 µM): 80% | residual activity (MKNK2 (human); compound 10.0 µM): 89% | residual activity (MAPKAPK2 (human); compound 1.0 µM): 79% | residual activity (MAPKAPK2 (human); compound 10.0 µM): 92% | residual activity (EPHB2 (human); compound 1.0 µM): 107% | residual activity (EPHB2 (human); compound 10.0 µM): 113% | residual activity (MAPK8 (human); compound 1.0 µM): 99% | residual activity (MAPK8 (human); compound 10.0 µM): 106% | residual activity (PAK4 (human); compound 1.0 µM): 102% | residual activity (PAK4 (human); compound 10.0 µM): 107% | residual activity (RPS6KA1 KD1 KD2 (human); compound 1.0 µM): 98% | residual activity (RPS6KA1 KD1 KD2 (human); compound 10.0 µM): 97% | residual activity (PIM1 (human); compound 1.0 µM): 93% | residual activity (PIM1 (human); compound 10.0 µM): 87% | residual activity (NEK2 (human); compound 1.0 µM): 97% | residual activity (NEK2 (human); compound 10.0 µM): 96% | residual activity (MAPK14 (human); compound 1.0 µM): 105% | residual activity (MAPK14 (human); compound 10.0 µM): 103% | residual activity (DYRK1A (human); compound 1.0 µM): 107% | residual activity (DYRK1A (human); compound 10.0 µM): 99% | residual activity ([1]; compound 1.0 µM): 94% | residual activity ([1]; compound 10.0 µM): 93% | residual activity (MARK3 (human); compound 1.0 µM): 91% | residual activity (MARK3 (human); compound 10.0 µM): 94% | residual activity (JAK2 JH1 JH2 (human); compound 1.0 µM): 103% | residual activity (JAK2 JH1 JH2 (human); compound 10.0 µM): 93% | residual activity (MAPK3 (human); compound 1.0 µM): 90% | residual activity (MAPK3 (human); compound 10.0 µM): 94% | residual activity (IRAK4 (human); compound 1.0 µM): 107% | residual activity (IRAK4 (human); compound 10.0 µM): 110% | residual activity (IKBKB (human); compound 1.0 µM): 100% | residual activity (IKBKB (human); compound 10.0 µM): 106% | residual activity (MKNK1 (human); compound 1.0 µM): 116% | residual activity (MKNK1 (human); compound 10.0 µM): 111% | residual activity (NTRK1 (human)): 141% | residual activity (IKBKE (human); compound 1.0 µM): 119% | residual activity (IKBKE (human); compound 10.0 µM): 99% | residual activity (STK3 (human); compound 1.0 µM): 102% | residual activity (STK3 (human); compound 10.0 µM): 101% | residual activity (MAP3K11 (human); compound 1.0 µM): 92% | residual activity (MAP3K11 (human); compound 10.0 µM): 98% | residual activity (NUAK1 (human)): 99% | residual activity ([2]; compound 1.0 µM): 116% | residual activity ([2]; compound 10.0 µM): 112% | residual activity (MARK1 (human); compound 1.0 µM): 98% | residual activity (MARK1 (human); compound 10.0 µM): 100% | residual activity (MARK2 (human); compound 1.0 µM): 99% | residual activity (MARK2 (human); compound 10.0 µM): 104% | residual activity (DYRK3 (human); compound 1.0 µM): 104% | residual activity (DYRK3 (human); compound 10.0 µM): 99% | residual activity (NEK6 (human); compound 1.0 µM): 105% | residual activity (NEK6 (human); compound 10.0 µM): 96% | residual activity (CHEK2 (human); compound 1.0 µM): 96% | residual activity (CHEK2 (human); compound 10.0 µM): 93% | residual activity (TTK (human); compound 1.0 µM): 104% | residual activity (TTK (human); compound 10.0 µM): 118% | residual activity ([3]; compound 1.0 µM): 88% | residual activity ([3]; compound 10.0 µM): 91% | residual activity (MAPK9 (human); compound 1.0 µM): 100% | residual activity (MAPK9 (human); compound 10.0 µM): 102% | residual activity (CSNK1D (human); compound 1.0 µM): 102% | residual activity (CSNK1D (human); compound 10.0 µM): 97% | residual activity (MAP2K1 (human); compound 1.0 µM): 90% | residual activity (MAP2K1 (human); compound 10.0 µM): 92% | residual activity (CaMK1 (human); compound 1.0 µM): 103% | residual activity (CaMK1 (human); compound 10.0 µM): 91% | residual activity (TBK1 (human); compound 1.0 µM): 95% | residual activity (TBK1 (human); compound 10.0 µM): 102%
Compound: Nc1cccc2c1CN(C1CCC(=O)NC1=O)C2=O (stereo not drawn)
